According to patent US10501516B2, “Peptide compound” (TAKEDA PHARMACEUTICAL COMPANY LIMITED, priority 2016, dated 2019):
Square brackets hold non-standard residues; d marks the D form. Side chains are listed from the residue outwards. Peptide text beside a SMILES is read from it. * marks the point of attachment. Phe(2-F) = N[C@@H](Cc1ccccc1F)C(=O)O; NMeY = CN[C@@H](Cc1ccc(O)cc1)C(=O)O; Palmitoyl = CCCCCCCCCCCCCCCC(=O)*; αMeF = C[C@](N)(Cc1ccccc1)C(=O)O; Iva = CC[C@](C)(N)C(=O)O; Aib = CC(C)(N)C(=O)O

Tests used:
human GLP-1R = biological target: T1, human GLP-1R (Homo sapiens, UniProt P43220); test: Reporter assay of human GLP-1R gene (agonist activity, intracellular cAMP as index); type: cell-based; conditions: Cre-luc reporter, hGLP-1R/Crel cells (CHO-K1), 4 hours
T1 construct: expressed in transfected cells; host or cells: CHO-K1 Cre-luc reporter cells (hGLP-1R/Crel cells)
Description: Evaluation of Agonist Activity Against Human NPY2R, Human GIPR, and Human GLP-1R Using Change in Intracellular cAMP Concentration as Index
The human GLP-1R gene having a sequence identical to the sequence of GenBank Accession No. NM_002062 was cloned into pIRESneo3 vector (Clontech Laboratories, Inc.) to prepare hGLP-1R/pIRESneo3. This vector was introduced to the Cre-luc reporter cells obtained in (1) to obtain transformants. Next, a cell line induced to express luciferase, i.e., hGLP-1R/Crel cells, were selected from the obtained transformants by the addition of human GLP-1(7-37) peptide.
The hGIPR/CRE-LUC/CHO-K1 cells or the hGLP-1R/Crel cells were inoculated at a cell density of 25 μL/well (5,000 cells/well) to a 384-well white plate (Corning, 3570), and cultured overnight in Ham F12 medium containing 10% fetal bovine serum, 100 U/mL penicillin and 100 μg/mL streptomycin in a CO2 incubator of 37° C. On the next day, a medium containing a test compound was added at a concentration of 5 μL/well to the cells, and the resultant cells were incubated for 4 hours in a CO2 incubator of 37° C. to give the final concentration of 1 μM. SteadyGlo (Promega) was added thereto at a concentration of 30 μL/well, and the mixture was shaken with light shielded. After 30 minutes, the luciferase activity was measured using a plate reader Envision (PerkinElmer). For the GIPR agonist activity, the luciferase activity in the presence of 10 μM GIP was defined as 100%, and the luciferase activity from the addition of DMSO instead of the test compound was defined as 0%. The GIPR agonist activity was calculated with a rise in intracellular cAMP concentration as an index.
For the GLP-1R agonist activity, assay similar to above was conducted using the hGLP-1R/Crel cells. The luciferase activity in the presence of 10 μM GLP-1 was defined as 100%, and the luciferase activity from the addition of DMSO instead of the test compound was defined as 0%. The GLP-1R agonist activity was calculated with a rise in intracellular cAMP concentration as an index.

male C57BL/6J mouse = test: Evaluation of feeding suppressive action in mice; type: in vivo; conditions: 30 nmol/kg s.c. once a day for 3 days; 3-days cumulative food consumption vs solvent control
Summary of the method: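 Male C57BL/6J mice, 8-9 weeks, ad libitum fed, given compound (30 or 100 nmol/2 mL in 10% DMSO saline) s.c. at 2 mL/kg once daily for 3 days. Cumulative 3-day food consumption measured by weighing; suppression rate (%) calculated relative to vehicle controls.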

T1 sequence (P43220 24-463): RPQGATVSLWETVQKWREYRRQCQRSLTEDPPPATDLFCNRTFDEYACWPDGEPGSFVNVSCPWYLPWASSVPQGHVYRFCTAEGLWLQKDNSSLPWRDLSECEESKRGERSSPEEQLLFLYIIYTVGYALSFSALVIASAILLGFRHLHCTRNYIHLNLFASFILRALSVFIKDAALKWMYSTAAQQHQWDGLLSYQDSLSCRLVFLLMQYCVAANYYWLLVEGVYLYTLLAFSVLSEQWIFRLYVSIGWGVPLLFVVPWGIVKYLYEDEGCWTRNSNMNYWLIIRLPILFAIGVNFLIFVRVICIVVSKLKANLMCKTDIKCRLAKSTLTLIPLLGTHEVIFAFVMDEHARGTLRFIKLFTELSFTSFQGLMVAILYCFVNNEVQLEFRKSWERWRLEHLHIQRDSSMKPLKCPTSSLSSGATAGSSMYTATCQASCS

CCCCCCCCCCCCCCCC(=O)NCC(=O)NCC(=O)NCC(=O)NCC(=O)NCCCC[C@H](NC(=O)[C@H](CC(=O)O)NC(=O)[C@H](CO)NC(=O)[C@@H](NC(=O)[C@](C)(Cc1ccccc1)NC(=O)[C@@H](NC(=O)CNC(=O)[C@H](CCC(=O)O)NC(=O)C(C)(C)NC(=O)[C@H](Cc1ccc(O)cc1)NC)[C@@H](C)O)[C@@H](C)O)C(=O)NC(C)(C)C(=O)N[C@H](C(=O)NC(C)(C)C(=O)N[C@@H](CC(C)C)C(=O)N[C@@H](CC(=O)O)C(=O)N[C@@H](CCCCN)C(=O)N[C@@H](CCC(N)=O)C(=O)N[C@@H](CCCNC(=N)N)C(=O)N[C@@H](CCC(N)=O)C(=O)N[C@@](C)(CC)C(=O)N[C@@H](CCC(=O)O)C(=O)N[C@@H](Cc1ccccc1)C(=O)N[C@H](C(=O)N[C@@H](CCCNC(=N)N)C(=O)N[C@@H](Cc1c[nH]cn1)C(=O)N[C@@H](CC(C)C)C(=O)N[C@@H](CC(C)C)C(=O)N[C@@H](CC(N)=O)C(=O)N[C@@H](CCCCN)C(=O)NC(C)(C)C(=O)N[C@H](C(=O)N[C@@H](CCCNC(=N)N)C(=O)N[C@@H](CCC(N)=O)C(=O)N[C@@H](CCCNC(=N)N)C(=O)N[C@@H](Cc1ccccc1F)C(N)=O)[C@@H](C)O)C(C)C)[C@@H](C)CC [Example 5] (H-[NMeY][Aib]EGT[αMeF]TSDK([Gly-Gly-Gly-Gly-Palmitoyl])[Aib]I[Aib]LDKQRQ[Iva]EFVRHLLNK[Aib]TRQR[Phe(2-F)]-NH2)
EC50 (human GLP-1R): 0.13 nM

CCCCCCCCCCCCCCCC(=O)NCC(=O)NCC(=O)NCC(=O)NCC(=O)NCCCC[C@H](NC(=O)[C@H](CC(=O)O)NC(=O)[C@H](CO)NC(=O)[C@@H](NC(=O)[C@](C)(Cc1ccccc1)NC(=O)[C@@H](NC(=O)CNC(=O)[C@H](CCC(=O)O)NC(=O)C(C)(C)NC(=O)[C@H](Cc1ccc(O)cc1)NC)[C@@H](C)O)[C@@H](C)O)C(=O)NC(C)(C)C(=O)N[C@H](C(=O)NC(C)(C)C(=O)N[C@@H](CC(C)C)C(=O)N[C@@H](CCC(=O)O)C(=O)N[C@@H](CCCCN)C(=O)N[C@@H](CCC(N)=O)C(=O)N[C@@H](CCCNC(=N)N)C(=O)N[C@@H](CCC(N)=O)C(=O)N[C@@](C)(CC)C(=O)N[C@@H](CCC(=O)O)C(=O)N[C@@H](Cc1ccccc1)C(=O)N[C@H](C(=O)N[C@@H](CCCNC(=N)N)C(=O)N[C@@H](Cc1c[nH]cn1)C(=O)N[C@@H](CC(C)C)C(=O)N[C@@H](CC(C)C)C(=O)N[C@@H](CC(N)=O)C(=O)N[C@@H](CCCCN)C(=O)NC(C)(C)C(=O)N[C@H](C(=O)N[C@@H](CCCNC(=N)N)C(=O)N[C@@H](CCC(N)=O)C(=O)N[C@@H](CCCNC(=N)N)C(=O)N[C@@H](Cc1ccc(O)cc1)C(N)=O)[C@@H](C)O)C(C)C)[C@@H](C)CC [Example 33] (H-[NMeY][Aib]EGT[αMeF]TSDK([Gly-Gly-Gly-Gly-Palmitoyl])[Aib]I[Aib]LEKQRQ[Iva]EFVRHLLNK[Aib]TRQRY-NH2)
EC50 (human GLP-1R): 0.13 nM
Rate of feeding suppression (%) (male C57BL/6J mouse): −58.4%
